The values below are quoted from earlier work in patent publication US6399785B1, “Multiply-substituted fullerenes” (C-Sixty, Inc., priority 1995, dated 2002).

Like-named read-outs stand apart in the source and are kept apart here.

For data set [1], the system named is HIV. The note with it: human PBMC acutely infected with HIV, in vitro.
In data set [2] the test system is HIV. The note with it: H9 cells chronically infected with HIV, in vitro.

For the substance “bis (monosuccinimide) derivative of p,p′-bis (2-aminoethyl) diphenyl C60”, the antiviral activity result with HIV [1] and in the data set with HIV [2] was “showed antiviral activity” throughout.
